Measurements as given in patent publication US9550742B2, “11-OXO-10,11-dihydrodibenzo[B,F][1,4]thiazepine S-oxide derivatives and their use as dopamine D2 receptor antagonists” (The United States of America, as Represented by the …, priority 2013, dated 2017).

Tests used:
5-HT1B = 5-HT1B (Homo sapiens, UniProt P28222); test: Affinity profile panel: 5-HT1B; settings: inhibition of binding
5-HT2A = 5-HT2A (Homo sapiens, UniProt P28223); test: Affinity profile panel: 5-HT2A; settings: inhibition of binding
Chain of 5-HT2A (P28223 whole entry, species assumed): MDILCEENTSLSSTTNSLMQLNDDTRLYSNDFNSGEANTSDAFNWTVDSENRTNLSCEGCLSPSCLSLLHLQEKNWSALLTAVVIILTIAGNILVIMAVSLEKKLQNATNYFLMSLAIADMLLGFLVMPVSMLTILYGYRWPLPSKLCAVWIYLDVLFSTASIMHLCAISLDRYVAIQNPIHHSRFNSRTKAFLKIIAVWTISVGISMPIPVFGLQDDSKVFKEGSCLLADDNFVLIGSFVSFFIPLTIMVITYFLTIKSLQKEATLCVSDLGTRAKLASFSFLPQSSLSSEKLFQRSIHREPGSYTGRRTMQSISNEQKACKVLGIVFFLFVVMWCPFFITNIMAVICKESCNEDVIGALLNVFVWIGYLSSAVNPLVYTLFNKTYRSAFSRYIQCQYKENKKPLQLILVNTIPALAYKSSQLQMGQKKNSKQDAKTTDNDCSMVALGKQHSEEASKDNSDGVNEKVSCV

BZP Rat Brain Site = test: Affinity profile panel: BZP Rat Brain Site; settings: inhibition of binding
M5 = M5 (Homo sapiens, UniProt P08912); test: Affinity profile panel: M5; settings: inhibition of binding
Chain of M5 (P08912 whole entry): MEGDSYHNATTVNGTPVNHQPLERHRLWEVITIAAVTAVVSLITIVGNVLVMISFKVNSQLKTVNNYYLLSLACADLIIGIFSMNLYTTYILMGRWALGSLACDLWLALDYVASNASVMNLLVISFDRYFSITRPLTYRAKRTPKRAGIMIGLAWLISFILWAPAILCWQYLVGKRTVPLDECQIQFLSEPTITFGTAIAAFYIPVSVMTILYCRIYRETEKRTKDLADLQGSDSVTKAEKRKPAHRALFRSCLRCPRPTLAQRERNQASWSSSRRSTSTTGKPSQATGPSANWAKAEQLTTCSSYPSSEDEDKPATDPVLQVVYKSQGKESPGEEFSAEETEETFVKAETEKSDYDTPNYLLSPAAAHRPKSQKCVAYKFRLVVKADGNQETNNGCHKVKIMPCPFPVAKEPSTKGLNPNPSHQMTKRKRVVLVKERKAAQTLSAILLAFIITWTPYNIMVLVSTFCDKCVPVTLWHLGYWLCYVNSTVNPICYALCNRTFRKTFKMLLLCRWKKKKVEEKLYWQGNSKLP

Beta1 = Beta1 (Homo sapiens, UniProt P08588); test: Affinity profile panel: Beta1; settings: inhibition of binding
Chain of Beta1 (P08588 whole entry): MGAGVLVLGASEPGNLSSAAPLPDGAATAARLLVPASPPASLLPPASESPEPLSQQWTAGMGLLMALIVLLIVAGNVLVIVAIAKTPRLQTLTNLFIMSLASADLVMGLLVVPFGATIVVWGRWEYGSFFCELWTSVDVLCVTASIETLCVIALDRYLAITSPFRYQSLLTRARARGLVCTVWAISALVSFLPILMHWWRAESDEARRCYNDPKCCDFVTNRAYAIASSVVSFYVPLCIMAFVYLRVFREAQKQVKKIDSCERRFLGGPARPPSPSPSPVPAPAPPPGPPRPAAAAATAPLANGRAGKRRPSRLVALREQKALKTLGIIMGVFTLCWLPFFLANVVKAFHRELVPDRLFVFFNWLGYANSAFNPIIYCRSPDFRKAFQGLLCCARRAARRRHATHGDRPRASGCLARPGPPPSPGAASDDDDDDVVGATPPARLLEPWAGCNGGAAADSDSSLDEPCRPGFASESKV

5-HT7 = 5-HT7 (Homo sapiens, UniProt P34969); test: Affinity profile panel: 5-HT7; settings: inhibition of binding
Chain of 5-HT7 (P34969 whole entry, species assumed): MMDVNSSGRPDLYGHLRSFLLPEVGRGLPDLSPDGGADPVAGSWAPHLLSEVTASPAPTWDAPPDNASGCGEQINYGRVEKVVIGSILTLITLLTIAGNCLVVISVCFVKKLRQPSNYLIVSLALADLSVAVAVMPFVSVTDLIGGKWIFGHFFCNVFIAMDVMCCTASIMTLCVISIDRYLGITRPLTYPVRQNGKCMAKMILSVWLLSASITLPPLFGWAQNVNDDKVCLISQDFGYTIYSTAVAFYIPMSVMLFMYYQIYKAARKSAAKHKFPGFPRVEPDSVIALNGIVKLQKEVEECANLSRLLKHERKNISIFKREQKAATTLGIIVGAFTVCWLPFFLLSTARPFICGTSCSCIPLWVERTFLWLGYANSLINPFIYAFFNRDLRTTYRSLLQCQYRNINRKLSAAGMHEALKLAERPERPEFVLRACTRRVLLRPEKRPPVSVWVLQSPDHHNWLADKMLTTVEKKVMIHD

D2 GPCR receptor (DAR) = biological target: T1, D2 GPCR receptor (DAR) (Homo sapiens, UniProt P14416); test: D2 beta-arrestin functional assay (PathHunter, CHO); assay type: cell-based
T1 construct: host or cells: CHO PathHunter β-arrestin cells
T1 sequence (P14416 whole entry): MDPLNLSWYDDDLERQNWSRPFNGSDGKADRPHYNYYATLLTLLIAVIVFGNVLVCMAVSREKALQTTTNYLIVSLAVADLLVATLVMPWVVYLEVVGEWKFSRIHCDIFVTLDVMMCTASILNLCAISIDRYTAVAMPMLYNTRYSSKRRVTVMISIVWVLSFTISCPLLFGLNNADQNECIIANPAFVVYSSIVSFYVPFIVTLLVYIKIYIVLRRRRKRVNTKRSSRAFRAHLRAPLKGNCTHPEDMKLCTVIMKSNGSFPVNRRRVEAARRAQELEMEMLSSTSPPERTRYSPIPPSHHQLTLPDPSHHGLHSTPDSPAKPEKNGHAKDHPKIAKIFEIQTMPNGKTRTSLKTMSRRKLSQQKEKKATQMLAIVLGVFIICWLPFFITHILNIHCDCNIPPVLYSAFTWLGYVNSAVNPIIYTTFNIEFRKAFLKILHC
Excerpt: For a secondary-screen and selectivity assays, DAR PathHunter® β-arrestin GPCR cell lines from DiscoveRx (Fremont, Calif.). In this) were used. In the D2 Receptor PathHunter® β-arrestin GPCR cell line, the D2 GPCR receptor (DAR) is overexpressed and fused with a small 42-amino acid fragment of β-galactosidase called ProLink™ on a CHO cellular background expressing a fusion protein of β-arrestin and a larger N-terminal deletion mutant of β-galactosidase (“enzyme acceptor”). When DAR is activated by dopamine, it stimulates binding of β-arrestin to the ProLink-tagged DAR and the two complementary parts of β-galactosidase form a functional enzyme. When substrate (PathHunter® Detection reagent) is added, β-galactosidase hydrolyzes it and generates a chemiluminescent signal.
D2 Receptor PathHunter® β-arrestin cells were seeded at 2,100 cells/well in 3 μL/well media (DiscoveRx Plating Reagent 2) with MultiDrop Combi dispenser (Thermo Scientific, Logan, Utah) onto white tissue culture treated 1,536-well Aurora plates (Brooks Automation, Chelmsford, Mass.) and allowed to attach overnight at 37° C., 5% CO2. Next, 23 nL/well of compound solutions in DMSO were added with a pintool transfer (Kalypsis, San Diego, Calif.). The cells were stimulated by compounds for 90 min at 37° C., 5% CO2, after which 1.5 μL/well of DiscoveRx detection reagent was added with BioRAPTR FRD dispenser. The detection reagent was prepared by mixing of Galacton Star Substrate, Emerald II solution and PathHunter buffer (supplied by the assay kit) together at a 1:5:19 proportion just prior to dispensing. The plates were incubated at ambient temperature for 1 hr, and the luminescent signal was read on a ViewLux plate reader (PerkinElmer, Waltham, Mass.).

D3 receptor = biological target: T2, D3 receptor (Rattus norvegicus, UniProt P19020); test: Pramipexole-induced yawning; assay type: in vivo; settings: rats, 3.2 and 10 mg/kg
T2 construct: from tissue; host or cells: live rats (whole animal)
T2 sequence (P19020 whole entry): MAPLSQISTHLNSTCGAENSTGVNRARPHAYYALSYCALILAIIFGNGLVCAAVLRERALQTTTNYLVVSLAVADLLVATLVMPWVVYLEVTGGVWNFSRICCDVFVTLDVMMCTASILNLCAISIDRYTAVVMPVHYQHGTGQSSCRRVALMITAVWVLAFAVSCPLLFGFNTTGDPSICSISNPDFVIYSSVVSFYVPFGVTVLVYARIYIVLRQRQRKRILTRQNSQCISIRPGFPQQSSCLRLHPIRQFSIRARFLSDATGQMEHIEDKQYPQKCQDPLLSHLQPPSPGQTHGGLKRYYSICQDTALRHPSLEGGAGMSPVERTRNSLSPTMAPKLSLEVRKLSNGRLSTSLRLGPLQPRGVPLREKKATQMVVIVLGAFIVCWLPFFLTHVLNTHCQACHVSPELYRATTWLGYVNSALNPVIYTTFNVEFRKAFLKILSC
Excerpt: Pramipexole, an agonist of the D3 receptor, produces yawning when administered subcutaneously. This response is known to be mediated by the D3 receptor and not the D2 receptor (Collins, Id.).
The sumanirole-induced hypothermia and pramipexole-induced yawning experiments show ML321 can act selectively to block the D2 receptor without blocking the D3 receptor when administered to living animals. Thus, the D2 selectivity identified using cellular assays can also be seen in living animals.

D2 receptor = test: PET study, displacement of the D2 receptor label [^11C]SV-130; assay type: in vivo, monkeys; settings: i.v.
Description: Positron emission tomography (PET) was performed using live monkeys. A radioactive PET probe ([^11C]SV-130) for the D2 receptor was injected intravenously. PET images of coronal sections of the brain were obtained at the level of the caudate putamen. […] Monkeys were treated (i.v.) with either 1 mg/kg or 5 mg/kg ML321, a compound of Formula I (compound 55, Example 61).
The time course of PET ([^11C]SV-130) labelling of the caudate, putamen, and cerebellumum in the absence or presence of either 1 mg/kg or 5 mg/kg ML321 was plotted. […] When ML321 was injected i.v. the [^11C]SV-130 signal decreased gradually from about 20 minutes through the 100 minute observation period. The [^11C]SV-130 signal decrease was particularly dose dependent in the putamen graph.
The significance of the PET [^11C]SV-130 labelling data are two-fold. […] Second, the experiments provide direct evidence that ML321 can occupy D2 receptors in the CNS in living animals and completely block D2 receptors at a reasonable pharmacological dose.

H1 = H1 (Homo sapiens, UniProt P35367); test: Affinity profile panel: H1; settings: inhibition of binding
Chain of H1 (P35367 whole entry): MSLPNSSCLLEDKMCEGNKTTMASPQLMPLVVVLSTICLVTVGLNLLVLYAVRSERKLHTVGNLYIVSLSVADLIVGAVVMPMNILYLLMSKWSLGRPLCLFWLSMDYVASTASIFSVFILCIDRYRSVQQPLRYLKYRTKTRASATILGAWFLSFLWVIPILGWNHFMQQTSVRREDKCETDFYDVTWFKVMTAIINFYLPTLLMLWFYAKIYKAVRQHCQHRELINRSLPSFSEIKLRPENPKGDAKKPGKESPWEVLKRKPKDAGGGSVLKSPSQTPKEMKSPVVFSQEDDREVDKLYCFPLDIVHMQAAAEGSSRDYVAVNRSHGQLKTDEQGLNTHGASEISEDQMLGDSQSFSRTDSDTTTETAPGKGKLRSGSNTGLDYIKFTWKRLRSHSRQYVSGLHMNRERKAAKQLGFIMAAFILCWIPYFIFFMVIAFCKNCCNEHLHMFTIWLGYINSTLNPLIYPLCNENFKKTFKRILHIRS

DOR = DOR (Homo sapiens, UniProt P41143); test: Affinity profile panel: DOR; settings: inhibition of binding
Chain of DOR (P41143 whole entry): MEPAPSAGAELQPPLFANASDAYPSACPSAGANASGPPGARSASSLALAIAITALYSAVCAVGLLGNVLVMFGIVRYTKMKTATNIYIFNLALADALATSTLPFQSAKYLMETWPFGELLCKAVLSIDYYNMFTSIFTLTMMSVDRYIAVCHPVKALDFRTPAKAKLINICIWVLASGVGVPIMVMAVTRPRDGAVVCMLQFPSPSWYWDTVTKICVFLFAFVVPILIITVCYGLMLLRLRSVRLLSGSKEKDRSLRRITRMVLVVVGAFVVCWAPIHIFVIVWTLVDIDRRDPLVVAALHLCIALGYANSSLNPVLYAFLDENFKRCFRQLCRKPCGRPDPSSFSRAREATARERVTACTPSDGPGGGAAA

Alpha1A = Alpha1A (Homo sapiens, UniProt P35348); test: Affinity profile panel: Alpha1A; settings: inhibition of binding
Chain of Alpha1A (P35348 whole entry): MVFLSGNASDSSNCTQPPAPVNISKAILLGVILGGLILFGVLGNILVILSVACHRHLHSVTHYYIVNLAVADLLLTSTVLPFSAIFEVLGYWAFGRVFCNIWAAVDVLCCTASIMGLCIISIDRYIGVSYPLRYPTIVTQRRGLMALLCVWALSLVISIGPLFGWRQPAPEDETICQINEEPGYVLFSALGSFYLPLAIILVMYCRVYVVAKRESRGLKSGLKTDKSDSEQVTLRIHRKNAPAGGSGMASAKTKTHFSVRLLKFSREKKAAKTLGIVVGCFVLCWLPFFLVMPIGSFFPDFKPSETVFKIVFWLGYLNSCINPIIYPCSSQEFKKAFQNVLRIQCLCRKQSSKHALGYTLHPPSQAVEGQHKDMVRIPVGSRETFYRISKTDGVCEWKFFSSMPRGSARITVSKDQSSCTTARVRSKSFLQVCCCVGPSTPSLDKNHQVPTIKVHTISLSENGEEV

PBR = PBR (Homo sapiens, UniProt P30536); test: Affinity profile panel: PBR; settings: inhibition of binding
Chain of PBR (P30536 whole entry, species assumed): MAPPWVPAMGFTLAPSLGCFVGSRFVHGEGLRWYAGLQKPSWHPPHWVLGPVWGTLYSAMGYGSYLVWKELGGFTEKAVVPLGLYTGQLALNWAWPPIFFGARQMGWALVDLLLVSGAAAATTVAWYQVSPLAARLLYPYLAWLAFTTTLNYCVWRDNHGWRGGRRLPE

Chain of 5-HT1B (P28222 whole entry, species assumed): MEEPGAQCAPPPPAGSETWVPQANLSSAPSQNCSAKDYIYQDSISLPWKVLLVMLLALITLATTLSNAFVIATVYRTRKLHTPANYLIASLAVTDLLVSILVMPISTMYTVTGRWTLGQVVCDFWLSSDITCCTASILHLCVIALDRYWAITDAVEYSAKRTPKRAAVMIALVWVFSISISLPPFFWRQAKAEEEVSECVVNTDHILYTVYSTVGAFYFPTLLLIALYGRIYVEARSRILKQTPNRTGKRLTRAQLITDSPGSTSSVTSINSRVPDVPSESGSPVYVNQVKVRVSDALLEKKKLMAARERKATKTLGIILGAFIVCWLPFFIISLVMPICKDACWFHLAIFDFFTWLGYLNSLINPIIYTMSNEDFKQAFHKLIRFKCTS

CN1C(=O)c2ccccc2[S@+]([O-])c2ccc(C(=O)NCCc3cccs3)cc21 [Compound 55, 10-Methyl-11-oxo-N-(2-(thiophen-2-yl)ethyl)-10,11-dihydrodibenzo[b,f][1,4]thiazepine-8-carboxamide 5-(S)-oxide]
Inhibition (%) 5-HT1B (5-HT1B): 24.0% | Inhibition (%) 5-HT2A (5-HT2A): 46.3% | Inhibition (%) BZP Rat Brain Site (BZP Rat Brain Site): 0.5% | Inhibition (%) M5 (M5): −6.5% | Inhibition (%) Beta1 (Beta1): 12.6% | Inhibition (%) 5-HT7 (5-HT7): 53.3% | AC50 (D2 GPCR receptor (DAR); dose response curve, read-out: D2 β-arrestin assay AC50): 725 nM | D3/D2 beta-arrestin IC50ratio (D2 GPCR receptor (DAR); ratio of D3 (Example 4) to D2 (Example 2) beta arrestin assay): 17.8 | Effect on pramipexole-induced yawning (D3 receptor): no effect on pramipexole-induced yawning | Blocking of [^11C]SV-130 D2 PET probe binding in the caudate putamen (D2 receptor; monkeys, 1 mg/kg or 5 mg/kg, images 20 to 100 minutes post injection): blocks the binding of the D2 receptor PET probe in the caudate putamen in a dose-dependent fashion | Blocking of [^11C]SV-130 labeling (D2 receptor; monkeys, 5 mg/kg): almost completely blocked | Blood-brain barrier crossing (D2 receptor; primates, PET evidence): can cross the blood-brain barrier in primates | Inhibition (%) H1 (H1): 41.6% | Inhibition (%) DOR (DOR): −23.6% | Inhibition (%) Alpha1A (Alpha1A): −13.4% | Inhibition (%) PBR (PBR): 31%
